Holding throughout (assay): Minimum inhibitory concentration (broth microdilution, CLSI)
Type in all cases: cell-based

In assay [1] the test system is Klebsiella pneumoniae HDBKP 30006. The settings on record: HDBKP30006. Here is the method:
(§1) 103 bacterial strains used for the minimum inhibitory concentration test were frozen in a −80° C. ULT freezer and thawed 2 days before use. A small amount of frozen microorganism bacteria were scraped using a sterile inoculating loop, streaked onto a suitable solid culture dish for inoculation, and then cultured for about 20 h at 35 t 2° C. in a normal incubator. • Proteus mirabilis HDBPM 40: MA, normal atmospheric environment • The remaining 102 strains of bacteria: TSA, normal atmospheric environment
(§2) 5-10 colonies with similar morphology were picked from the culture dish using a sterile inoculating loop and then re-streaked onto a corresponding solid culture dish. Then the dish was incubated in a normal incubator at 35 t 2° C. for about 20 h.
(§3) 5-10 single microbial colonies were picked from the solid culture dish, resuspended in 500 μL of sterile normal saline (0.9% NaCl), and adjusted to an OD600 of about 0.15 with a spectrophotometer.
(§4) The bacteria were then diluted 300-fold with 1.02×CAMHB to an inoculation concentration of 2×10^5 CFU/mL.
(§5) • There were a total of 3 assay plate patterns, one of which was used for each assay. • 8 rows of the assay plate (rows A-H) were for 8 test compounds, respectively. The highest test concentration of the compounds was 16, 32 or 64 μg/mL, and each compound was diluted 2-fold. • Growth control (GC): a medium containing microbial inoculum (1.02×CAMHB) and dimethylsulfoxide (DMSO) but no compound.
(§6) The test and reference compounds were dissolved in DMSO or H2O to prepare 6.4 mg/mL stock solutions. The stock solutions were diluted to prepare standby solutions with certain concentrations, and the volumes of the standby solutions were determined according to the experimental design. Corresponding volumes of the standby solutions were transferred to the starting wells of a dilution plate (A1-H1), and half the starting-well volume of DMSO to the other wells. Each compound was diluted 2-fold sequentially from column 1 to column 11 (e.g., transferring 30 μL of DMSO to columns 2-12 first, then pipetting 30 μL of the compounds from column 1 to column 2 and mixing them well, then pipetting 30 μL of the compounds from column 2 to column 3 and mixing them well, then pipetting 30 μL of the compounds from column 3 to column 4 and mixing them well, and so on to column 11).
(§7) 1 or 2 μL of the compounds and DMSO were transferred from the compound plate to corresponding wells of the assay plates.
(§8) 98 μL of corresponding bacterial inocula were added to the assay plates.
(§9) After addition, the assay plates were covered with sterile covers. The mixtures in the assay plates were centrifuged in a centrifuge at 800 rpm for 30 s, mixed well on a microplate shaker at 400 rpm for 1 min, and incubated in a normal incubator at 35 t 2° C. for 20-24 h.
(§10) The assay plates were placed on a plate reading device, and the speculum was adjusted to observe and record the growth condition of bacteria in each well. In the mean time, each assay plate was photographed with QCount system.
(§11) The minimum inhibitory concentration of each compound was recorded by reference to guidelines from the Clinical and Laboratory Standards Institute.
(§12) The minimum inhibitory concentrations of the compounds against experimental strains were tested in this study by reference to the medium microdilution method as indicated by the Clinical and Laboratory Standards Institute. Compounds were diluted two-fold in 96-well plates from the highest detection concentration of 16, 32 or 64 μg/mL. The bacterial inocula in the assay plates were thawed from corresponding medium plates and diluted in 1.02×CAMHB, while growth controls (GC wells) were set up in the assay plates. The minimum inhibitory concentration of each compound against different bacteria was observed and recorded after the assay plates were incubated in a normal incubator at 35 t 2° C. for about 20 h. The minimum inhibitory concentration values for the different compounds are listed in the list below.

The test system of assay [2] is Proteus mirabilis HDBPM 40. The settings on record: HDBPM40. Here is the method:
as §1, §2, §3, §4, §5, §6, §7, §8, §9, §10, §11, §12

Assay [3] concerns Escherichia coli HDBEC 30016. The settings on record: HDBEC30016. Here is the method: as §1, §2, §3, §4, §5, §6, §7, §8, §9, §10, §11, §12
The test system of assay [4] is Enterobacter cloacae HDBECL 30030. The settings on record: HDBECL30030. As to the method: as §1, §2, §3, §4, §5, §6, §7, §8, §9, §10, §11, §12
Assay [5] deals with Klebsiella pneumoniae HDBKP 9249. The settings on record: HDBKP9249. Here is the method: as §1, §2, §3, §4, §5, §6, §7, §8, §9, §10, §11, §12
The subject of assay [6] is Escherichia coli HDBEC 30048. The settings on record: HDBEC30048. As to the method: as §1, §2, §3, §4, §5, §6, §7, §8, §9, §10, §11, §12
The test system of assay [7] is Klebsiella pneumoniae HDBKP 9153. The settings on record: HDBKP9153. Here is the method:
as §1, §2, §3, §4, §5, §6, §7, §8, §9, §10, §11, §12

For assay [8], the system named is Pseudomonas aeruginosa HDBPA 5679. The settings on record: HDBPA5679. Here is the method: as §1, §2, §3, §4, §5, §6, §7, §8, §9, §10, §11, §12
The subject of assay [9] is Escherichia coli HDBEC 30008. The settings on record: HDBEC30008. Here is the method: as §1, §2, §3, §4, §5, §6, §7, §8, §9, §10, §11, §12

The source of these data is patent US20230110378A1, “MONOBACTAM COMPOUND AND USE THEREOF” (EVOPOINT BIOSCIENCES CO., LTD., priority 2019, published 2023).

Converted amounts (≈) assume the structure as drawn.

On to `C[n+]1cc(-c2cc(C(=O)NC[C@@H]3[C@H](NC(=O)/C(=N\OC(C)(C)C(=O)O)c4csc(N)n4)C(=O)N3S(=O)(=O)O)on2)cn1CCCN` [Compound I-1], for which the minimal inhibitory concentration (MIC) is 4 to 8 µg/mL in assay [1]; under 4 µg/mL in assay [2]; over 16 µg/mL in [3]; under 4 µg/mL in assay [4]; under 4 µg/mL in [5]; over 16 µg/mL in assay [6]. Also, the MIC in [7] was over 16 µg/mL; in [8], over 16 µg/mL; in [9] it was 4 to 8 µg/mL.

For the compound `C[n+]1cc(-c2ncc(C(=O)NC[C@@H]3[C@H](NC(=O)/C(=N\OC(C)(C)C(=O)O)c4csc(N)n4)C(=O)N3S(=O)(=O)O)s2)cn1CCCN` [Compound I-2], the MIC in [1] was under 4 µg/mL; in assay [2] it was under 4 µg/mL; in assay [3], over 16 µg/mL; in assay [4] it was under 4 µg/mL; in assay [5], under 4 µg/mL; in assay [6], over 16 µg/mL. The MIC in assay [7] was under 4 µg/mL; in assay [8], over 16 µg/mL; in assay [9], under 4 µg/mL.

For the compound `CC(C)(O/N=C(\C(=O)N[C@@H]1C(=O)N(S(=O)(=O)O)[C@@H]1CNC(=O)c1cc(-c2cc[n+](CCNC(=N)N)cc2)no1)c1csc(N)n1)C(=O)O` [Compound I-3], the MIC is 4 to 8 µg/mL in [1]; under 4 µg/mL in assay [2]; over 16 µg/mL in assay [3]; under 4 µg/mL in assay [4]; under 4 µg/mL in assay [5]; over 16 µg/mL in assay [6]. Also, the MIC in assay [7] was over 16 µg/mL; in assay [8], over 16 µg/mL; in assay [9], under 4 µg/mL.

`CC(C)(O/N=C(\C(=O)N[C@@H]1C(=O)N(S(=O)(=O)O)[C@@H]1CNC(=O)c1cc(-c2cc[n+](CCN)cc2)no1)c1csc(N)n1)C(=O)O` [Compound I-4]: the MIC is over 16 µg/mL in assay [1]; under 4 µg/mL in [2]; over 16 µg/mL in assay [3]; 4 to 8 µg/mL in assay [4]; under 4 µg/mL in [5]; over 16 µg/mL in [6]. For the same compound, the results for the MIC in assay [7], in assay [8] and in assay [9] were over 16 µg/mL, over 16 µg/mL and 4 to 8 µg/mL, respectively.

For `CC(C)(O/N=C(\C(=O)N[C@@H]1C(=O)N(S(=O)(=O)O)[C@@H]1CNC(=O)c1cc([C@@H]2CCNC2)no1)c1csc(N)n1)C(=O)O` [Compound I-5], the MIC in assay [1] is over 16 µg/mL; in [2] it was under 4 µg/mL; in [3], over 16 µg/mL; in [4], under 4 µg/mL; in [5], under 4 µg/mL; in [6], over 16 µg/mL. Also, the minimum inhibitory concentration (MIC) was over 16 µg/mL in assay [7], over 16 µg/mL in assay [8] and under 4 µg/mL in assay [9].

In the case of `CC(C)(O/N=C(\C(=O)N[C@@H]1C(=O)N(S(=O)(=O)O)[C@@H]1CNC(=O)c1cc(C2CNC2)no1)c1csc(N)n1)C(=O)O` [Compound I-6], the MIC in [1] was over 16 µg/mL; in assay [2], under 4 µg/mL; in [3], over 16 µg/mL; in assay [4] it was under 4 µg/mL; in assay [5], under 4 µg/mL; in [6] it was over 16 µg/mL. Besides, the values for the MIC in [7], in assay [8] and in assay [9] were over 16 µg/mL, over 16 µg/mL and under 4 µg/mL, respectively.

Consider `CC(C)(O/N=C(\C(=O)N[C@@H]1C(=O)N(S(=O)(=O)O)[C@@H]1CNC(=O)c1cc([C@@H]2CCN(C(=O)c3ccc(O)c(O)c3F)C2)no1)c1csc(N)n1)C(=O)O` [Compound I-8], for which the MIC was 4 to 8 µg/mL (≈ 5.2 to 10.4 µM) in assay [1]; under 4 µg/mL in assay [2]; under 4 µg/mL in assay [3]; under 4 µg/mL in assay [4]; 4 to 8 µg/mL (≈ 5.2 to 10.4 µM) in assay [5]; under 4 µg/mL in assay [6]. Further, the MIC in [7], in assay [8] and in assay [9] was under 4 µg/mL throughout.

On to `C[n+]1cc(-c2ncc(C(=O)NC[C@@H]3[C@H](NC(=O)/C(=N\OC(C)(C)C(=O)O)c4csc(N)n4)C(=O)N3S(=O)(=O)O)s2)cn1CC(N)CN` (stereo partly drawn) [Compound I-9], for which the MIC in assay [1] was 4 to 8 µg/mL; in [2], under 4 µg/mL; in assay [3] it was over 16 µg/mL; in assay [4], under 4 µg/mL; in assay [5], under 4 µg/mL; in [6], over 16 µg/mL. The minimum inhibitory concentration (MIC) in assay [7] was 8 to 16 µg/mL; in assay [8], over 16 µg/mL; in [9] it was under 4 µg/mL.

Turning to `C[n+]1cc(-c2ncc(C(=O)NC[C@@H]3[C@H](NC(=O)/C(=N\OC(C)(C)C(=O)O)c4csc(N)n4)C(=O)N3S(=O)(=O)O)s2)cn1CCCNC(=N)N` [Compound I-11], the MIC in assay [1] was under 4 µg/mL; in assay [2], under 4 µg/mL; in assay [3] it was 8 to 16 µg/mL; in [4], under 4 µg/mL; in assay [5], under 4 µg/mL; in [6], 8 to 16 µg/mL. The results for the minimum inhibitory concentration (MIC) in assay [7], in assay [8] and in [9] were under 4 µg/mL, over 16 µg/mL and under 4 µg/mL, respectively.

In the case of `C[n+]1cc(-c2ncc(C(=O)NC[C@@H]3[C@H](NC(=O)/C(=N\OC(C)(C)C(=O)O)c4csc(N)n4)C(=O)N3S(=O)(=O)O)s2)cn1CCCNC(=O)c1cc(=O)c(O)cn1O` [Compound I-12], the MIC in [1] is 8 to 16 µg/mL; in assay [2] it was under 4 µg/mL; in assay [3], under 4 µg/mL; in [4], under 4 µg/mL; in [5] it was 4 to 8 µg/mL; in assay [6] it was under 4 µg/mL. Moreover, the minimal inhibitory concentration (MIC) in assay [7], in [8] and in assay [9] was under 4 µg/mL each time.

For `C[n+]1cc(C(=O)NC[C@@H]2[C@H](NC(=O)/C(=N\OC(C)(C)C(=O)O)c3csc(N)n3)C(=O)N2S(=O)(=O)O)sc1-c1cnn(CC(N)CN)c1` (stereo partly drawn) [Compound I-13], the minimal inhibitory concentration (MIC) is 8 to 16 µg/mL in assay [1]; under 4 µg/mL in assay [2]; over 16 µg/mL in [3]; 4 to 8 µg/mL in [4]; under 4 µg/mL in assay [5]; over 16 µg/mL in assay [6]. The MIC is 4 to 8 µg/mL in assay [7], over 16 µg/mL in assay [8] and 8 to 16 µg/mL in assay [9].

Turning to `CC(C)(O/N=C(\C(=O)N[C@@H]1C(=O)N(S(=O)(=O)O)[C@@H]1CNC(=O)c1cc([C@@H]2CCN(C(=O)c3cc(=O)c(O)cn3O)C2)no1)c1nsc(N)n1)C(=O)O` [Compound I-14], the MIC is over 16 µg/mL in assay [1]; under 4 µg/mL in assay [2]; over 16 µg/mL in assay [3]; under 4 µg/mL in [4]; over 16 µg/mL in assay [5]; under 4 µg/mL in [6]. Moreover, the MIC in assay [7], in assay [8] and in assay [9] was under 4 µg/mL each time.

As for `C[n+]1cc(-c2ncc(C(=O)NC[C@@H]3[C@H](NC(=O)/C(=N\OC(C)(C)C(=O)O)c4nsc(N)n4)C(=O)N3S(=O)(=O)O)s2)cn1CC(N)CN` (stereo partly drawn) [Compound I-15], the minimum inhibitory concentration (MIC) is over 16 µg/mL in [1]; under 4 µg/mL in assay [2]; over 16 µg/mL in assay [3]; 4 to 8 µg/mL in [4]; over 16 µg/mL in assay [5]; over 16 µg/mL in assay [6]. The minimal inhibitory concentration (MIC) in [7] is over 16 µg/mL; in [8] it was over 16 µg/mL; in assay [9] it was 4 to 8 µg/mL.
